Where two headings read alike, the source gives them in different places. Square brackets hold non-standard residues; d marks the D form. Peptide text beside a SMILES is read from it. * marks the point of attachment. ξ: configuration not given here. Piperidin1yl(4-NH2,4-CO2Me) = COC(=O)C1(N)CCN(*)CC1; Pyrrolidinyl(3-NH2,3-CO2Me) = COC(=O)C1(N)CCN(*)C1; Pyrrolidino(3-NH2-3-COOH) = NC1(C(=O)O)CCN(*)C1; dAla(cPr) = N[C@H](CC1CC1)C(=O)O; Tic = O=C(O)[C@@H]1Cc2ccccc2CN1; dTic = O=C(O)[C@H]1Cc2ccccc2CN1; Aic = NC1(C(=O)O)Cc2ccccc2C1; ξL = CC(C)CC(N)C(=O)O
Tests used:
[1] = biological target: recombinant human kappa (KOR) opioid receptor (Homo sapiens (Human), UniProt P41145); assay: biochemical; type: binding
[2] = biological target: recombinant human mu (MOR) opioid receptor (Homo sapiens (Human), UniProt P35372); assay: Opioid receptor radioligand binding assay, MOR
[3] = biological target: recombinant human delta (DOR) opioid receptor (Homo sapiens (Human), UniProt P41143); assay: Opioid receptor radioligand binding assay, DOR
Chain of recombinant human delta (DOR) opioid receptor (P41143 whole entry, looked up): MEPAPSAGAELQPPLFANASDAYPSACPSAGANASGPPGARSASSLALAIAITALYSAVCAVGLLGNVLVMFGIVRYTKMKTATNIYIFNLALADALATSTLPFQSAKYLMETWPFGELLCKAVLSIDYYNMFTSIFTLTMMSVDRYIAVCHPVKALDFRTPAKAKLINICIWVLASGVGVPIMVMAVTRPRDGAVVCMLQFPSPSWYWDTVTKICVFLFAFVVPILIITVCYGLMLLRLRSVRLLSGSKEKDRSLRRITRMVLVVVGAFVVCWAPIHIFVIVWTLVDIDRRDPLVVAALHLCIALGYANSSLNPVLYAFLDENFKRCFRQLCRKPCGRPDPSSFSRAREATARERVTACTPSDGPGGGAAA

[4] = biological target: Opioid Kappa Receptor (recombinant human, HEK293 cells) (Homo sapiens (Human), UniProt P41145); assay: cell-based
[5] = HEK293 cell membranes, 0.5 nM [3H]diprenorphine
[6] = HEK293 cell membranes, 0.5 nM [3H]DAMGO, read-out: MOR, IC50
[7] = HEK293 cell membranes, 0.5 nM [3H]DADLE, read-out: DOR, IC50

| Structure (SMILES) | IC50 [1, 5] | IC50 [2, 6] | IC50 [3, 7] | EC50 ([4]; read-out: EC50) | also measured |
| --- | --- | --- | --- | --- | --- |
| COC(=O)C(=O)NC1CCN(C(=O)[C@@H](CCCCN)NC(=O)[C@@H](CC(C)C)NC(=O)[C@@H](Cc2ccccc2)NC(=O)[C@H](N)Cc2ccccc2)CC1 [Compound 13-29] | 0.29 nM | 6.86 nM | > 10000 nM | 15.5 nM |  |
| COCCNC(=O)[C@@H](CCCCN)NC(=O)[C@@H](CC(C)C)NC(=O)[C@@H](Cc1ccccc1)NC(=O)[C@H](N)Cc1ccccc1 [Compound 13-2] | 1.37 nM | > 10000 nM | > 10000 nM | 8.31 nM |  |
| CCCN(C(=O)OC)C1CCN(C(=O)[C@@H](CCCCN)NC(=O)[C@@H](CC(C)C)NC(=O)[C@@H](Cc2ccccc2)NC(=O)[C@H](N)Cc2ccccc2)CC1 [Compound 13-49] | 0.46 nM | > 10000 nM | > 10000 nM |  |  |
| CCOC(=O)N1CCN(C(=O)[C@@H](CCCCN)NC(=O)[C@@H](CC(C)C)NC(=O)[C@@H](Cc2ccccc2)NC(=O)[C@H](N)Cc2ccccc2)CC1 [Compound 13-47] |  | > 10000 nM | > 10000 nM |  | IC50 [1]: 0.27 nM; EC50 [4]: 4.84 nM |
| COC(=O)C1(N)CCN(C(=O)[C@@H](CCCCN)NC(=O)[C@@H](CC(C)C)NC(=O)[C@@H](Cc2ccccc2)NC(=O)[C@H](N)Cc2ccc(F)cc2)CC1 [Compound 184] |  |  |  | 6.26 nM |  |
| COC(=O)[C@@H](N)CNC(=O)[C@@H](CCCCN)NC(=O)[C@@H](CC(C)C)NC(=O)[C@@H](Cc1ccccc1)NC(=O)[C@H](N)Cc1ccccc1 [Compound 13-12] | 6.6 nM | > 10000 nM | > 10000 nM | 7.07 nM |  |
| COC(=O)C1(N)CCN(C(=O)[C@@H](CCCCN)NC(=O)[C@@H](CC2CC2)NC(=O)[C@@H](Cc2ccccc2)NC(=O)[C@H](N)Cc2ccccc2)CC1 [Compound 112] (H-[dF][dF][dAla(cPr)][dK]-{Piperidin1yl(4-NH2,4-CO2Me)}) | 1 nM | 15.2 nM | > 10000 nM | 5.95 nM |  |
| CC(C)C[C@@H](NC(=O)[C@@H](Cc1ccccc1)NC(=O)[C@H](N)Cc1ccccc1)C(=O)N[C@H](CCCCN)C(=O)N1CCC(NC(=O)CNC(N)=O)CC1 [Compound 13-55] | 0.35 nM |  |  | 20.4 nM | IC50 [2]: > 10000 nM; IC50 [3]: > 10000 nM |
| COC(=O)C1(N)CCN(C(=O)[C@@H](CCCCN)NC(=O)[C@H]2CCCN2C(=O)[C@@H](Cc2ccccc2)NC(=O)[C@H](N)Cc2ccccc2)CC1 [Compound 89] (H-[dF][dF][dP][dK]-{Piperidin1yl(4-NH2,4-CO2Me)}) | > 200 nM | > 10000 nM | > 10000 nM |  |  |
| COC(=O)C1(N)CCN(C(=O)[C@@H](CCCCN)NC(=O)[C@H]2CCCN2C(=O)[C@@H](Cc2ccccc2)NC(=O)[C@H](N)Cc2ccccc2)C1 (some centres unmarked) [Compound 92] (H-[dF][dF][dP][dK]-{Pyrrolidinyl(3-NH2,3-CO2Me)}) | 33 nM | > 10000 nM | > 10000 nM |  |  |
| COC(=O)C1(N)CCN(C(=O)[C@@H](CCCCN)NC(=O)[C@@H](CC(C)C)NC(=O)[C@@H](Cc2ccccc2)NC(=O)[C@H](N)Cc2ccc(F)cc2)C1 (some centres unmarked) [Compound 181] |  |  |  | 8.7 nM |  |
| COC(=O)C1(N)CCN(C(=O)[C@@H](CCCCN)NC(=O)C(CC(C)C)NC(=O)[C@@H](Cc2ccccc2)NC(=O)C2(N)Cc3ccccc3C2)C1 (some centres unmarked) [Compound 156] (H-[Aic][dF][ξL][dK]-{Pyrrolidinyl(3-NH2,3-CO2Me)}) | 2.3 nM | 5370 nM | > 10000 nM |  |  |
| COC(=O)C1(N)CCN(C(=O)[C@@H](CCCNC(=N)N)NC(=O)[C@H]2CCCN2C(=O)[C@@H](Cc2ccccc2)NC(=O)[C@H](N)Cc2ccccc2)C1 (some centres unmarked) [Compound 28] (H-[dF][dF][dP][dR]-{Pyrrolidinyl(3-NH2,3-CO2Me)}) | > 200 nM | > 10000 nM | > 10000 nM |  |  |
| COC(=O)C1(N)CCN(C(=O)[C@@H](CCCCN)NC(=O)[C@@H](CC(C)C)NC(=O)[C@@H]2Cc3ccccc3CN2C(=O)[C@H](N)Cc2ccccc2)C1 (stereo partly drawn) [Compound 146] (H-[dF][Tic][dL][dK]-{Pyrrolidinyl(3-NH2,3-CO2Me)}) | 164 nM | > 10000 nM | > 10000 nM |  |  |
| CC(C)C[C@@H](NC(=O)[C@@H](Cc1ccccc1)NC(=O)[C@H](N)Cc1ccccc1)C(=O)N[C@H](CCCCN)C(=O)NCc1cccc(C(=O)O)n1 [Compound 13-6] |  |  |  | 30.5 nM |  |
| CC(C)C[C@@H](NC(=O)[C@@H](Cc1ccccc1)NC(=O)[C@H](N)Cc1ccccc1)C(=O)N[C@H](CCCCN)C(=O)N1CCC(NC(=O)C(N)=O)CC1 [Compound 13-33] | 0.54 nM | > 10000 nM | > 10000 nM |  |  |

| Structure (SMILES) | IC50 [1, 5] | IC50 [2, 6] | IC50 [3, 7] | EC50 ([4]; read-out: EC50) | also measured |
| --- | --- | --- | --- | --- | --- |
| CC(C)C[C@@H](NC(=O)[C@@H](Cc1ccccc1)NC(=O)[C@H](N)Cc1ccccc1)C(=O)N[C@H](CCCCN)C(=O)N1CCC(O)(CO)CC1 [Compound 13-65] |  |  |  | 1.68 nM |  |
| N=C(N)NCCC[C@@H](NC(=O)[C@@H](CC1CC1)NC(=O)[C@@H](Cc1ccccc1)NC(=O)[C@H](N)Cc1ccccc1)C(=O)N1CCC(N)(C(=O)O)C1 (some centres unmarked) [Compound 134] (H-[dF][dF][dAla(cPr)][dR]-{Pyrrolidino(3-NH2-3-COOH)}) | 2.35 nM |  |  | 12.6 nM |  |
| CC(C)C[C@@H](NC(=O)[C@@H](Cc1ccccc1)NC(=O)[C@H](N)Cc1ccccc1)C(=O)N[C@H](CCCCN)C(=O)N1CCC(NC(=O)C(N)=O)CC1 [Compound 13-57] |  |  | > 10000 nM |  |  |
| CC(C)C[C@@H](NC(=O)[C@@H](Cc1ccccc1)NC(=O)[C@H](N)Cc1ccccc1)C(=O)N[C@H](CCCCN)C(=O)NC1CCN(C(=O)C(=O)NC2CC2)CC1 [Compound 13-37] | 11 nM | 9290 nM | > 10000 nM |  |  |
| COC(=O)C1(N)CCN(C(=O)[C@@H](CCCNC(=N)N)NC(=O)[C@H]2CCCN2C(=O)[C@@H](Cc2ccccc2)NC(=O)[C@H](N)Cc2ccccc2)CC1 [Compound 22] (H-[dF][dF][dP][dR]-{Piperidin1yl(4-NH2,4-CO2Me)}) | 200 nM | 5060 nM | > 10000 nM |  |  |
| CC(C)C[C@@H](NC(=O)[C@@H](Cc1ccccc1)NC(=O)[C@H](N)Cc1ccccc1)C(=O)N[C@H](CCCCN)C(=O)NCc1ccncc1O [Compound 13-11] | 0.91 nM | > 10000 nM | > 10000 nM |  |  |
| NCCCC[C@@H](NC(=O)[C@@H](CC1CC1)NC(=O)[C@@H](Cc1ccccc1)NC(=O)[C@H](N)Cc1ccccc1)C(=O)N1CCC(N)(C(=O)O)C1 (some centres unmarked) [Compound 119] (H-[dF][dF][dAla(cPr)][dK]-{Pyrrolidino(3-NH2-3-COOH)}) | 2.36 nM |  |  | 23.1 nM |  |
| COCCN(CCOC)C(=O)[C@@H](CCCCN)NC(=O)[C@@H](CC(C)C)NC(=O)[C@@H](Cc1ccccc1)NC(=O)[C@H](N)Cc1ccccc1 [Compound 13-3] | 28.1 nM | > 10000 nM | > 10000 nM |  |  |
| CCCC[C@@H](NC(=O)[C@@H](Cc1ccccc1)NC(=O)[C@H](N)Cc1ccccc1)C(=O)N[C@H](Cc1cnc(N)nc1)C(=O)N1CCC(N)(C(=O)OC)C1 (some centres unmarked) [Compound 82] | 42.5 nM | 5170 nM | > 10000 nM |  |  |
| COC(=O)C1(N)CCN(C(=O)[C@@H](CCCCN)NC(=O)[C@@H](CC(C)C)NC(=O)[C@@H](Cc2ccccc2)NC(=O)[C@H]2Cc3ccccc3CN2)C1 (stereo partly drawn) [Compound 168] (H-[dTic][dF][dL][dK]-{Pyrrolidinyl(3-NH2,3-CO2Me)}) | 4.23 nM |  |  |  | IC50 [2]: 2410 nM; IC50 [3]: > 10000 nM |
| CC(C)C[C@@H](NC(=O)[C@@H](Cc1ccccc1)NC(=O)[C@H](N)Cc1ccccc1)C(=O)N[C@H](CCCCN)C(=O)NCCC[C@H](N)C(=O)O [Compound 13-44] |  |  |  | 4.75 nM |  |
| COC(=O)C1(N)CCN(C(=O)[C@@H](CCCCN)NC(=O)C(CC(C)C)NC(=O)[C@@H](Cc2ccccc2)NC(=O)C2(N)Cc3ccccc3C2)CC1 (some centres unmarked) [Compound 158] (H-[Aic][dF][ξL][dK]-{Piperidin1yl(4-NH2,4-CO2Me)}) | 0.9 nM | 5370 nM | > 10000 nM |  |  |
| CC(C)C[C@@H](NC(=O)[C@@H](Cc1ccccc1)NC(=O)[C@H](N)Cc1ccccc1)C(=O)N[C@H](CCCCN)C(=O)N1CCN(C(=O)/C=C/C(=O)O)CC1 [Compound 13-25] | 5.56 nM | > 10000 nM | > 10000 nM |  |  |
| CC(C)C[C@@H](NC(=O)[C@@H](Cc1ccccc1)NC(=O)[C@H](N)Cc1ccccc1)C(=O)N[C@H](CCCCN)C(=O)N1CCC2(CC1)CNC(=O)N2 [Compound 13-46] | 0.31 nM | > 10000 nM | > 10000 nM |  |  |
| CC(C)C[C@@H](NC(=O)[C@@H](Cc1ccccc1)NC(=O)[C@H]1Cc2ccccc2CN1)C(=O)N[C@H](CCCCN)C(=O)N1CCC(N)(C(=O)O)C1 (stereo partly drawn) [Compound 169] (H-[dTic][dF][dL][dK]-{Pyrrolidino(3-NH2-3-COOH)}) |  |  |  | 167 nM |  |

— patent US12215173B2, “Kappa opioid receptor peptide amide ligands” (priority 2019, dated 2025)
